Data set [1] concerns Protein kinase C, as a mixture of isozymes. In words: PKC activity assay, 32P transfer from [γ-32P]ATP to histone III-S. The format is biochemical, rat. To be noted: for inhibition at 10 μM: 10 μM inhibitor; for IC50: histone III-S substrate, 15 min, three trials per concentration. The text has this: In practicing various aspects of the present invention, compounds in accordance with the invention can be tested for a biological activity of interest using any assay protocol that is predictive of activity in vivo. For example, a variety of convenient assay protocols are available that are generally predictive of PKC inhibitory activity in vivo. In one approach, PKC inhibitory activity can be assessed using the PKC assay described in Example 9 (also described by Toullec et al. (1991) J. Biol. Chem. 266:15771). In that assay, the PKC was derived, as a mixture of isozymes, from rat brains, and activity was determined by incorporation of ^32P radiolabeled phosphate, derived from [γ-^32P]-ATP, onto a PKC substrate. Another assay for assessing PKC inhibitory activity is described in Example 10; see also U.S. Patent Application Publication No. 2002/0137789 A1 to Wender et al. In this assay, Ki values are determined for potential inhibitors based on competition with radiolabeled phorbol 12,13-dibutyrate for binding to a mixture of PKC isozymes.
Materials used: Phosphatidyl serine and 1,2 sn-dioleylglycerol were obtained from Serdary Research Laboratories. Protein kinase C, as a mixture of isozymes, was obtained in isolated and purified form from Prof. Daria Mochley-Rosen and Tamar Lion (Stanford University, Department of Molecular Pharmacology).
PKC activity was assayed by measuring ^32Pi transferred from [γ-^32P]ATP to histone III-S (Sigma). The reaction mixture (100 μL) included 20 mM Tris-HCl (pH 7.5) (30 μL), 10 mM CaCl2 in 20 mM Tris-HCl (10 μL), a sonicated suspension of 2.4 mg/mL phosphatidylserine and 80 μg/mL 1,2-diacylglycerol in 20 mM Tris-HCl (10 μL), a PKC preparation of 4.5 mg/mL total PKC with 5–9 U activity/mL relative to histone III-S (10 μL), a solution of 0.35 mg/mL histone III-S (Sigma) in 20 mM Tris-HCl (10 μL), and a solution of the inhibitor at various concentrations in 20 mM Tris-HCl containing <1% DMSO (10 μL). The reaction was started by the addition of a solution containing 27 μL of 3.75 mM ATP (non-radiolabeled), 100 μL 1.0 M MgCl2, and 1.3 μL of […] [γ-^32P]ATP, and 872 μL of 20 mM Tris-HCl (pH 7.5) (20 μL). After 15 min, the reaction was stopped by the addition of 30 μL of 200 mM EDTA and 200 mM ATP (non-radiolabeled). The reaction mixture was adsorbed onto phosphocellulose paper squares (Whatman P81), and allowed to dry for 5 min. The phosphocellulose paper squares were then washed with EtOH (3×1 min). The total protein phosphorylation was quantitated by scintillation counting. Counts per minute were averaged among three trials at each concentration.

The subject of a further data set is PKC. To be noted: Tamaoki et al. (1986); cited from earlier work.
The next data set deals with five of the PKC isoforms. To be noted: cited from earlier work.

What is called IC50 is the point on the concentration scale where inhibition reaches its midpoint. Turning to `CN1C(=O)c2c3c(c4c(c2C1=O)c1ccccc1n4CCCNC(=O)OC(C)(C)C)CCC(O)CC3` (stereo not drawn) [Compound 14], in data set [1], the “inhibition at 10 μM” value is on record as “^B40% inhibition at 10 μM” and the IC50 was more than 10 µM. As for `O=C1NC(=O)c2c1c1c(c3[nH]c4ccccc4c23)CCC(O)CC1` (stereo not drawn) [Compound 12], in data set [1], the IC50 is 4.5 µM.

For the compound `CN[C@H]1CC2(C)OC(C)([C@H]1OC)n1c3ccccc3c3c4c(c5c6ccccc6n2c5c31)C(=O)NC4` (stereo partly drawn) [Staurosporin], the IC50 in the data set with PKC was 0.0027 µM; in the data set on five of the PKC isoforms, less than 0.01 µM.

On to `O=C1CCc2c3c(c4c([nH]c5ccccc54)c2CC1)C(=O)NC3=O` [Compound 11], for which, in data set [1], the IC50 was 3.6 µM. By melting point is commonly meant the temperature, or range, at which the solid turns liquid. Take `CN1C(=O)c2c3c(c4[nH]c5ccccc5c4c2C1=O)CCC(=O)CC3` [Compound 10]: the melting point is 309 to 310 °C (dec.). In data set [1], the “inhibition at 10 μM” value is “^A36% inhibition at 10 μM” and the IC50 was more than 10 µM.
